Measured values published in publication PMC12040169 (PLOS Biology, 2025).

Columns and labels:
[1] = system: T1, CTL2-GFP (C. trachomatis L2/434/Bu, GFP-expressing); experiment: microbe, parasite or virus in culture; design: Intracellular C. trachomatis growth in HeLa cells, bulk GFP fluorescence relative to DMSO; conditions: Chlamydia trachomatis, HeLa, 28.5 h; bulk GFP, mean of 2; read-out: % of control remaining
T1 construct: L2/434/Bu, GFP-expressing
Method: MICs were calculated as described above.

[2] = in vitro; design: Viability of infected HeLa host cells, resazurin conversion, bulk resorufin fluorescence relative to DMSO; conditions: human, hela cells; bulk resorufin, mean of 2
[3] = in vitro; conditions: human, hela cells, % viability
[4] = system: T2, C. trachomatis L2/434/Bu expressing GFP (CTL2-GFP); experiment: microbe, parasite or virus in culture; design: C. trachomatis total inclusion area by high-content imaging, normalised to DMSO; conditions: Chlamydia trachomatis, HeLa, 28.5 h; total inclusion area; read-out: % of control remaining
T2 construct: L2/434/Bu GFP intracellular growth in HeLa cells
Outline: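 Read-out combines bulk fluorescence and imaging: GFP tracks chlamydial growth, resorufin tracks host cell viability. Plates were then fixed and Hoechst-stained so inclusions and nuclei could be imaged and counted per well.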

| SMILES | activity at 1 µM [1] [%] | activity at 5 µM [1] [%] | activity at 10 µM [1] [%] | viability at 28.5 h, 1 µM [2] [%] | viability at 28.5 h, 5 µM [2] [%] | viability at 28.5 h, 10 µM [2] [%] | viability at 28.5 h, 10 µM [3] [%] | activity at 1 µM [4] [%] | activity at 5 µM [4] [%] | activity at 10 µM [4] [%] |
| --- | --- | --- | --- | --- | --- | --- | --- | --- | --- | --- |
| CCN(CC)CCNc1nc(-c2cccc(Cl)c2)nc2ccccc12 [CBK267265C] | 108 | 98.1 | 55.5 | 104 | 104 | 108 | 90.7 | 85 | 45.3 | 26.4 |
| OC(CN1CCN(Cc2ccccc2)CC1)Cn1c2ccc(Br)cc2c2cc(Br)ccc21 (stereo not drawn) [CBK262203] | 104 | 98.6 | 88.8 | 94.6 | 90.4 | 90 | 94.4 | 102 | 94.9 | 35 |
| Cc1nc(C(=N)N)nc2ccccc12 [CBK010368C] | 94.1 | 66.1 | 65.1 | 98.3 | 94.3 | 88.2 | 86.3 | 60.8 | 35.9 | 41.3 |
| COc1ccc(C2CC(=O)C=C(Nc3cc(Cl)ccc3O)C2)cc1 (stereo not drawn) [CBK263542] | 86 | 0 | 9.05 | 90.9 | 101 | 87.8 | 105 | 81.9 | 0.174 | 3.14 |
| COc1ccc([C@@]23CC[C@@H](Nc4nc(-c5ccc(Br)cc5)cs4)C[C@@H]2N(C)CC3)cc1OC [CBK036543] | 138 | 104 | 94.2 | 91.3 | 91 | 109 | 87.7 | 76.2 | 68.6 | 45.2 |
| CCn1c2c(c3cc(S(=O)(=O)c4ccc(C(F)(F)F)cc4)ccc31)CCNCC2 [CBK018453C] | 143 | 54.5 | 5.22 | 94.5 | 89.4 | 91.9 | 97.5 | 133 | 58.6 | 12.8 |
| COCC(=O)N[C@H]1C[C@H]2C(=O)Nc3ccc(/C=C/c4ccccc4)cc3C(=O)N2C1 [CBK289366] | 87.5 | 12 | 2.8 | 93.1 | 96.4 | 98.1 | 90.2 | 105 | 11.7 | 1.71 |
| CC(=O)c1cc(-c2cccnc2)cs1 [CBK017637] | 140 | 120 | 123 | 113 | 110 | 110 | 82.4 | 86.9 | 83.4 | 98.2 |
| c1ccc2c3c([nH]c2c1)C1(CCN(CCC2CCCCC2)C1)OCC3 (stereo not drawn) [CBK061789] | 168 | 72.4 | 23.7 | 92.9 | 90 | 84.9 | 83.3 | 51.4 | 5.37 | 3.22 |
| COc1ccc(C(C)C)cc1-c1cn2ccnc2c(N2CCN(c3ccncc3)CC2)n1 [CBK066217] | 91.5 | 63.5 | 28.4 | 102 | 104 | 101 | 116 | 96.6 | 75.5 | 31.5 |
| CC(=O)NC[C@H]1CN(c2ccc(-c3nnc([C@@H](C)N)s3)c(F)c2)C(=O)O1 [CBK017966] | 90.2 | 10 | 3.77 | 92.5 | 87.1 | 89.3 | 93.2 | 84.6 | 5.78 | 2.78 |
| CC(Nc1cccc2ccccc12)C(=O)N/N=C/c1ccc(O)cc1O (stereo not drawn) [CBK262681] | 103 | 62.9 | 42.4 | 89.9 | 86.9 | 82.2 | 75.9 | 91.4 | 46.9 | 24.5 |
